Counter-ions that a name gives are not always drawn. Like-named read-outs stand apart in the source and are kept apart here.
Tests used:
[1] = test system: T. cruzi (Tulahuen strain); assay: microbe, parasite or virus in culture; format: cell-based, Trypanosoma cruzi; conditions: for activity at 10 µM / EC50: Trypanosoma cruzi, TULAHUEN, Fibroblast; for activity at 10 µM: 120 h, read-out: T. cruzi % growth @ 10 uM (Amastigotes); for EC50: read-out: T. cruzi EC50
Protocol: Compounds were tested against T. cruzi (Tulahuen strain) stably expressing the beta-galactosidase gene as previously described. […] Fibroblasts were plated at a density of 2×10^3 per well in 96 well tissue culture plates. After 24 hours of incubation, 1×10^4 trypomastigotes/well were added to the fibroblasts and incubated for 4 hours before addition of the test compounds from the Spectrum Collection (10 µM final concentration). Cultures were incubated at 37°C for 5 days, then developed with chlorophenol red β-D-galactopyranoside as previously described. The percent inhibition is reported with standard deviation of the mean. […] Z-prime values were calculated for each 96-well plate based on positive (4 wells) and negative controls (4 wells).

3T3 fibroblast cells = assay: in vitro; format: cell-based, murine; conditions: 10 uM, Table S2; for activity at 10 µM: Mus musculus, NIH3T3, 72 h, read-out: Mammalian (3T3) cell % growth at 10 uM

Row | Compound | activity at 10 µM ([1]; 10 uM, Table S2) [%] | activity at 10 µM (3T3 fibroblast cells) [%] | other results
1 | 1-methyl-9H-pyrido[3,4-b]indol-7-ol hydrochloride [HARMOL] | – | – | T. cruzi % growth @ 10 uM (Amastigotes) ([1]; 10 uM, Table S2): 4.4%; Mammalian (3T3) cell % growth at 10 uM (3T3 fibroblast cells): 71.4%
2 | CC1(C)C(=O)C2OC2C2(C)C1CC(O)C1(C)C2CCC2(C)C(c3ccoc3)OC(=O)C3OC321 (stereo not drawn) [1,2alpha-EPOXYDEACETOXYDIHYDROGEDUNIN, 7-(furan-3-yl)-20-hydroxy-1,8,12,17,17-pentamethyl-3,6,14-trioxahexacyclo[9.9.0.0^{2,4}.0^{2,8}.0^{12,18}.0^{13,15}]icosane-5,16-dione] | 7.8 | 77.3 | –
3 | O=C(/C=C(/O)c1ccccc1)c1ccccc1O [2',beta-DIHYDROXYCHALCONE, (2E)-3-hydroxy-1-(2-hydroxyphenyl)-3-phenylprop-2-en-1-one] | 10 | 100 | –
4 | COc1ccc(C(=O)c2ccc(O)cc2)c(O)c1O [2,3,4'-TRIHYDROXY-4-METHOXYBENZOPHENONE] | 3.6 | 86.8 | –
5 | CCOc1ccc(C(=O)c2ccc(OC)c(O)c2O)cc1 [2,3-DIHYDROXY-4-METHOXY-4'-ETHOXYBENZOPHENONE] | 9.1 | 95.8 | –
6 | Cc1[nH]c2ccccc2c1CN(C)C [2-METHYL GRAMINE] | 20.8 | 86.9 | –
7 | COc1ccc(-c2cc(=O)c3ccccc3o2)cc1OC [3',4'-DIMETHOXYFLAVONE, 2-(3,4-dimethoxyphenyl)-4H-chromen-4-one] | 24 | 86.4 | –
8 | O=c1c(O)c(-c2ccccc2)oc2cccc(O)c12 [3,5-DIHYDROXYFLAVONE] | 12.3 | 99.6 | –
9 | COC(=O)C[C@H]1C(C)(C)[C@@H](O)[C@@H]2CC3=C4CC(O)O[C@@H](c5ccoc5)[C@]4(C)CCC3[C@@]1(C)C2=O (stereo partly drawn) [3,16-DIDEOXYMEXICANOLIDE-3beta-DIOL] | 22.1 | 99.8 | –
10 | CC(=O)OC1CCC2(C)C(CC(OC(C)=O)C3(C)C4=CC(=O)OC(c5ccoc5)C4(C)CCC23)C1(C)C (stereo not drawn) [3-DEOXO-3beta-ACETOXYDEOXYDIHYDROGEDUNIN, 18-(acetyloxy)-6-(furan-3-yl)-1,7,11,15,15-pentamethyl-4-oxo-5-oxatetracyclo[8.8.0.0^{2,7}.0^{11,16}]octadec-2-en-14-yl acetate] | 7.8 | 100 | –
11 | COc1ccc2c(c1)OC[C@@H](Cc1ccc(OC)c(OC)c1)[C@@H]2O [3-DESHYDRO[…] ETHER] | 24.9 | 80.4 | –
12 | COc1ccc(-c2oc3ccccc3c(=O)c2O)cc1OC [3-HYDROXY-3',4'-DIMETHOXYFLAVONE] | 5.2 | 99.2 | –
13 | O=c1c(O)c(-c2ccccc2)oc2ccccc12 [3-HYDROXYFLAVONE, 3-hydroxy-2-phenyl-4H-chromen-4-one] | 4.1 | 85.7 | –
14 | C[C@@H]1CC[C@@]23CCC4(C)[C@@](C=CC5[C@@]6(C)CCC(=O)C(C)(C)C6CC[C@]54C)(OC2=O)C3[C@H]1C (stereo partly shown) [3-OXOURSAN (28-13)OLIDE] | 11.1 | 100 | –
15 | COc1ccc2c(c1)OCC(Cc1ccc(OC)c(OC)c1)C2=O (stereo not shown) [3-[(3,4-dimethoxyphenyl)methyl]-7-methoxy-3,4-dihydro-2H-1-benzopyran-4-one] | 8.3 | 84.5 | –
16 | CC(=O)O[C@H]1CC[C@]2(C)C(C[C@H](OC(C)=O)[C@]3(C)C4=CC(=O)OC(c5ccoc5)[C@@]4(C)CCC23)C1(C)C (stereo partly drawn) [3beta,7beta-[…]] | 2.5 | 72.2 | –
17 | CC(=O)OC1CCC2(C)C(CC(OC(C)=O)C3(C)C2CCC2(C)C(c4ccoc4)OC(=O)C4OC423)C1(C)C (stereo not drawn) [3beta-ACETOXYDEOXODIHYDROGEDUNIN, 15-(acetyloxy)-7-(furan-3-yl)-1,8,12,16,16-pentamethyl-5-oxo-3,6-dioxapentacyclo[9.8.0.0^{2,4}.0^{2,8}.0^{12,17}]nonadecan-19-yl acetate] | 7 | 96.7 | –
18 | COc1ccc(-c2cc(=O)c3ccccc3o2)cc1 [4'-METHOXYFLAVONE, 2-(4-methoxyphenyl)-4H-chromen-4-one] | 18.7 | 100 | –

Row | Compound | activity at 10 µM ([1]; 10 uM, Table S2) [%] | activity at 10 µM (3T3 fibroblast cells) [%] | other results
19 | CC(C)CCCC(C)C1CCC2C3CC(=O)C4CC(O)CCC4(C)C3CCC12C (stereo not drawn) [5alpha-CHOLESTAN-3beta-OL-6-ONE, 5-hydroxy-2,15-dimethyl-14-(6-methylheptan-2-yl)tetracyclo[8.7.0.0^{2,7}.0^{11,15}]heptadecan-8-one] | 7.8 | 100 | –
20 | O=c1cc(-c2ccccc2)oc2c(O)c(O)ccc12 [7,8-DIHYDROXYFLAVONE, 7,8-dihydroxy-2-phenyl-4H-chromen-4-one] | 1.3 | 72.6 | –
21 | CC(C)CCC[C@@H](C)[C@H]1CC[C@H]2[C@@H]3C(=O)C=C4C[C@@H](O)CC[C@]4(C)[C@H]3CC[C@]12C [7-OXOCHOLESTEROL, (1S,2R,5S,10S,11S,14R,15R)-5-hydroxy-2,15-dimethyl-14-[(2R)-6-methylheptan-2-yl]tetracyclo[8.7.0.0^{2,7}.0^{11,15}]heptadec-7-en-9-one] | 23.4 | 68.5 | –
22 | COC(=O)C1(C)CCCC2(C)c3ccc(C(C)C)cc3C(=O)CC12 (stereo not shown) [7-OXOC[…], METHYL ESTER, methyl 1,4a-dimethyl-9-oxo-7-(propan-2-yl)-1,2,3,4,4a,9,10,10a-octahydrophenanthrene-1-carboxylate] | 5.1 | 91.8 | –
23 | COc1ccc(-c2cc(=O)c3c(O)cc(O)cc3o2)cc1 [ACACETIN, 5,7-dihydroxy-2-(4-methoxyphenyl)-4H-chromen-4-one] | 23.1 | 77.4 | –
24 | CC(=O)[C@H]1CC[C@H]2[C@@H]3CC[C@H]4C[C@@H](O)CC[C@]4(C)[C@H]3CC[C@]12C [ALLOPREGNANOLONE, 1-[(1S,2S,5S,7S,10R,11S,14S,15S)-5-hydroxy-2,15-dimethyltetracyclo[8.7.0.0^{2,7}.0^{11,15}]heptadecan-14-yl]ethan-1-one] | 3.7 | 100 | –
25 | Clc1ccc2c(c1)C(N1CCNCC1)=Nc1ccccc1O2 [AMOXAPINE, 13-chloro-10-(piperazin-1-yl)-2-oxa-9-azatricyclo[9.4.0.0^{3,8}]pentadeca-1(15),3,5,7,9,11,13-heptaene] | 11.7 | 98 | –
26 | CC1C=CC=CC=CC=CC=CC=CC=CC(OC2OC(C)C(O)C(N)C2O)CC2OC(O)(CC(O)CC(O)C(O)CCC(O)CC(O)CC(=O)OC(C)C(C)C1O)CC(O)C2C(=O)O (stereo not shown) [AMPHOTERICIN B, 33-[(4-amino-3,5-dihydroxy-6-methyloxan-2-yl)oxy]-1,3,5,6,9,11,17,37-octahydroxy-15,16,18-trimethyl-13-oxo-14,39-dioxabicyclo[33.3.1]nonatriaconta-19,21,23,25,27,29,31-heptaene-36-carboxylic acid] | 20.6 | 89.7 | EC50 ([1]; Table S2, amastigotes): 0.04 nM; EC50 [1]: 40 nM
27 | CC12C=CC(=O)C=C1CCC1C2CCC2(C)C(=O)CCC12 (stereo not shown) [ANDROSTA-1,4-DIEN-3,17-DIONE, 2,15-dimethyltetracyclo[8.7.0.0^{2,7}.0^{11,15}]heptadeca-3,6-diene-5,14-dione] | 25.1 | 72.1 | –
28 | O=c1cc(-c2ccc(O)cc2)oc2cc(O)cc(O)c12 [APIGENIN, 5,7-dihydroxy-2-(4-hydroxyphenyl)-4H-chromen-4-one] | 17.7 | 73.6 | –
29 | CC1CCC2C(C)C(=O)OC3OC4(C)CCC1C32OO4 (stereo not shown) [ARTEMISININ, 1,5,9-trimethyl-11,14,15,16-tetraoxatetracyclo[10.3.1.0^{4,13}.0^{8,13}]hexadecan-10-one] | 17.5 | 77.6 | EC50 ([1]; Table S2, amastigotes): 5020 nM
30 | COc1ccc(CCN2CCC(Nc3nc4ccccc4n3Cc3ccc(F)cc3)CC2)cc1 [ASTEMIZOLE, 1-[(4-fluorophenyl)methyl]-N-{1-[2-(4-methoxyphenyl)ethyl]piperidin-4-yl}-1H-1,3-benzodiazol-2-amine] | 11.6 | 100 | –
31 | CN1CCCC(n2nc(Cc3ccc(Cl)cc3)c3ccccc3c2=O)CC1 (stereo not shown) [AZELASTINE HYDROCHLORIDE, 4-[(4-chlorophenyl)methyl]-2-(1-methylazepan-4-yl)-1,2-dihydrophthalazin-1-one hydrochloride] | 1.5 | 95.1 | EC50 [1]: 2200 nM
32 | CCCCc1oc2ccccc2c1C(=O)c1cc(I)c(OCCN(CC)CC)c(I)c1 [Amiodarone, (2-{4-[(2-butyl-1-benzofuran-3-yl)carbonyl]-2,6-diiodophenoxy}ethyl)diethylamine hydrochloride] | – | 86.7 | –
33 | CN(C)CCCN1c2ccccc2CCc2ccc(Cl)cc21 [Clomipramine, (3-{5-chloro-2-azatricyclo[9.4.0.0^{3,8}]pentadeca-1(15),3,5,7,11,13-hexaen-2-yl}propyl)dimethylamine hydrochloride] | – | 84.6 | –
34 | CNCCC(Oc1ccc(C(F)(F)F)cc1)c1ccccc1 (stereo not shown) [Fluoxetine, methyl({3-phenyl-3-[4-(trifluoromethyl)phenoxy]propyl})amine hydrochloride] | – | 100 | –
35 | CNC1CCC(c2ccc(Cl)c(Cl)c2)c2ccccc21 (stereo not shown) [Sertraline, 4-(3,4-dichlorophenyl)-N-methyl-1,2,3,4-tetrahydronaphthalen-1-amine hydrochloride] | – | 100 | –

From PMC4102417 (PLoS Neglected Tropical Diseases, 2014)
